Like-named read-outs stand apart in the source and are kept apart here.
Key:
[1] = target: recombinant RORγ Ligand Binding Domain (LBD) protein (Homo sapiens (Human), UniProt P51449); assay: Radio-Ligand RORγ Binding Assay (Assay 1); conditions: competition with 25-hydroxy [26,27-3H]-cholesterol, SPA, read-out: RORγ Binding Ki Range*
Summary of the method: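 Recombinant human RORγ ligand binding domain (6×His-GST fusion, 24 nM stock) competed with tritiated 25-hydroxycholesterol (8.6 nM stock) in HEPES buffer pH 7.4 with detergents and DTT; poly-Lys YSi SPA beads, room temperature, tritium SPA signal. Four-parameter IC50 from semi-log dilutions, normalised to DMSO and 10 μM T0901317, then Ki via KD equation.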

[2] = target: full-length RORγt in Jurkat cells (Homo sapiens (Human), UniProt P51449); assay: RORγt 5xRORE Assay in Jurkat Cells (Assay 2); type: cell-based; conditions: Nanoluc luciferase reporter, 16-18 hrs
Summary of the method: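 Inverse agonist activity was read as NanoGlo luminescence from conditioned medium after 16–18 h compound exposure (37 °C, 0.1% DMSO final). The cells were Jurkat, transiently transfected with RORγt and a secNluc reporter carrying five RORE repeats, seeded 80,000 per well in delipidated-serum RPMI.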

[3] = Table 9, read-out: RORγt5X IC50 Range*
[4] = Table 8, read-out: RORγt5X IC50 Range*

recombinant RORγ Ligand Binding Domain (LBD) protein, sequence (P51449 269-508): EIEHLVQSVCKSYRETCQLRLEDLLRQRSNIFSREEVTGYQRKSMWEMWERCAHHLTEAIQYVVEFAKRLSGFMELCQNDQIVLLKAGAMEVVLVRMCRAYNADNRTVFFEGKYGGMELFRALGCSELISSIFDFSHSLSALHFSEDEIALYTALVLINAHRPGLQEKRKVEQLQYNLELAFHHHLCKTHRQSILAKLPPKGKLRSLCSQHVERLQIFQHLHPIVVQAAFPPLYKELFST
full-length RORγt in Jurkat cells, sequence (P51449 other isoform, or with tags, fused parts or gaps): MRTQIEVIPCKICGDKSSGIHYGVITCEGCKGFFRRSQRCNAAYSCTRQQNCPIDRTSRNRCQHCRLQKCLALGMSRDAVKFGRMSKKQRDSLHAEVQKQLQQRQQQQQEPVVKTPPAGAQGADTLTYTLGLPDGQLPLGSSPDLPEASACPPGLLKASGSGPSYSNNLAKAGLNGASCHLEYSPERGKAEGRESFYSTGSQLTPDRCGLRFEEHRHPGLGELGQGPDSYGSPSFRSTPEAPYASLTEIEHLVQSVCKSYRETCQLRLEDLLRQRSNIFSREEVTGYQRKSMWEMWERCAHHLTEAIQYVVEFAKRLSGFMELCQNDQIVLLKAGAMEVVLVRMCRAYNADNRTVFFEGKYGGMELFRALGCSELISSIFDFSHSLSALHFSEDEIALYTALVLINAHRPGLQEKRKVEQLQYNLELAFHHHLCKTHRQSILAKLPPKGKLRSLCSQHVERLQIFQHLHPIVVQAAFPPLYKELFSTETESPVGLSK

| Compound | Ki ([1]; Table 9) [nM] | IC50 [2, 3] [nM] | Ki ([1]; Table 8) [nM] | IC50 [2, 4] [nM] |
| --- | --- | --- | --- | --- |
| CCS(=O)(=O)c1ccc(CC(=O)Nc2nc3c(s2)CN(C[C@H]2CC[C@@](C)(C#N)CC2)[C@H]3C(C)C)cc1 (single isomer, unassigned) | < 100 | < 100 | – | – |
| CCS(=O)(=O)c1ccc(CC(=O)Nc2nc3c(s2)CN(C[C@H]2CC[C@@H](C(F)(F)F)O2)[C@H]3C(C)C)nc1 (single isomer, unassigned) | < 100 | > 1000 | – | – |
| CCS(=O)(=O)c1ccc(CC(=O)Nc2nc3c(s2)CN(C[C@H]2CC[C@@H](C(F)(F)F)OC2)[C@H]3C(C)C)nc1 (single isomer, unassigned) | < 100 | 100 to 1000 | – | – |
| CCS(=O)(=O)c1ccc(CC(=O)Nc2nc3c(s2)CN(C[C@@H]2CC[C@H](C(F)(F)F)O2)[C@H]3C(C)C)nc1 (single isomer, unassigned) | < 100 | > 1000 | – | – |
| CCS(=O)(=O)c1ccc(CC(=O)Nc2nc3c(s2)CN(C[C@@H]2CC[C@H](C(F)(F)F)OC2)[C@H]3C(C)C)nc1 (single isomer, unassigned) | < 100 | > 1000 | – | – |
| CCS(=O)(=O)c1ccc(CC(=O)Nc2nc3c(s2)CN(C[C@H]2CC[C@@H](C(F)(F)F)NC2)[C@H]3C(C)C)cc1 (single isomer, unassigned) | < 100 | > 1000 | – | – |
| CCS(=O)(=O)c1ccc(CC(=O)Nc2nc3c(s2)CN(C[C@H]2CC[C@@H](C(F)(F)F)OC2)[C@H]3C(C)C)cc1 (single isomer, unassigned) | < 100 | > 1000 | – | – |
| CC(C)[C@H]1c2nc(NC(=O)Cc3ccc(S(C)(=O)=O)cc3)sc2CN1[C@@H](C)c1ccc(Cl)cn1 (single isomer, unassigned) | < 100 | 100 to 1000 | – | – |
| CCS(=O)(=O)c1ccc(CC(=O)Nc2nc3c(s2)CN([C@@H](C)c2ccc(C#N)cn2)[C@H]3C(C)C)cc1 (single isomer, unassigned) | < 100 | < 100 | – | – |
| CC(C)[C@@H]1c2nc(NC(=O)Cc3ccc(S(C)(=O)=O)cc3)sc2CN1[C@H](C)c1ccc(C(F)(F)F)cc1 (single isomer, unassigned) | 100 to 1000 | 100 to 1000 | – | – |
| CCS(=O)(=O)c1ccc(CC(=O)Nc2nc3c(s2)CN([C@H](C)c2ccccc2)[C@@H]3C(C)C)cc1 (single isomer, unassigned) | < 100 | > 1000 | – | – |
| CCS(=O)(=O)c1ccc(CC(=O)Nc2nc3c(s2)CN(C[C@H]2CC[C@H](C(F)(F)F)NC2)[C@H]3C(C)C)nc1 (single isomer, unassigned) [drawing 211] | 100 to 1000 | 100 to 1000 | – | – |
| CCS(=O)(=O)c1ccc(CC(=O)Nc2nc3c(s2)CN(C[C@H]2CC[C@H](C(F)(F)F)NC2)[C@H]3C(C)C)nc1 (single isomer, unassigned) [drawing 212] | < 100 | > 1000 | – | – |
| CCS(=O)(=O)c1ccc(CC(=O)Nc2nc3c(s2)CN(Cc2ccc(OC(F)F)cc2)[C@H]3C(C)C)cc1 [I-A1, (S)—N-(5-(4-(difluoromethoxy)benzyl)-4-isopropyl-5,6-dihydro-4H-pyrrolo[3,4-d]thiazol-2-yl)-2-(4-(ethylsulfonyl)phenyl)acetamide] | – | – | < 100 | < 100 |
| CCS(=O)(=O)c1ccc(CC(=O)Nc2nc3c(s2)CN(Cc2ccc(C#N)c(F)c2)[C@H]3C(C)C)cc1 [I-A4] | – | – | < 100 | < 100 |
| CCS(=O)(=O)c1ccc(CC(=O)Nc2nc3c(s2)CN(Cc2ccc(C#N)cn2)[C@H]3C(C)C)cc1 [I-A5] | – | – | < 100 | < 100 |
| CCS(=O)(=O)c1ccc(CC(=O)Nc2nc3c(s2)CN(Cc2ncc(C(F)(F)F)cn2)[C@H]3C(C)C)cc1 [I-A6] | – | – | < 100 | < 100 |
| CCS(=O)(=O)c1ccc(CC(=O)Nc2nc3c(s2)CN(Cc2ccccc2)[C@H]3C(C)C)cc1 [I-A7] | – | – | < 100 | > 1000 |
| CCS(=O)(=O)c1ccc(CC(=O)Nc2nc3c(s2)CN(Cc2cccc(C(F)(F)F)c2)[C@H]3C(C)C)cc1 [I-A8] | – | – | < 100 | > 1000 |
| CCS(=O)(=O)c1ccc(CC(=O)Nc2nc3c(s2)CN(Cc2ncc(Cl)cc2F)[C@H]3C(C)C)cc1 [I-A10] | – | – | < 100 | < 100 |
| CCS(=O)(=O)c1ccc(CC(=O)Nc2nc3c(s2)CN(Cc2ccc(F)cc2)[C@H]3C(C)C)cc1 [I-A14] | – | – | < 100 | > 1000 |
| CCS(=O)(=O)c1ccc(CC(=O)Nc2nc3c(s2)CN(Cc2ccc(C#N)cc2)[C@H]3C(C)C)cc1 [I-A15] | – | – | < 100 | < 100 |
| CCS(=O)(=O)c1ccc(CC(=O)Nc2nc3c(s2)CN(Cc2ccc(-c4ccc(=O)n(C)c4)cc2)[C@H]3C(C)C)cc1 [I-A19, (S)-2-(4-(ethylsulfonyl)phenyl)-N-(4-isopropyl-5-(4-(1-methyl-6-oxo-1,6-dihydropyridin-3-yl)benzyl)-5,6-dihydro-4H-pyrrolo[3,4-d]thiazol-2-yl)acetamide] | – | – | < 100 | < 100 |
| CCS(=O)(=O)c1ccc(CC(=O)Nc2nc3c(s2)CN(CC2CCN(CC(F)(F)F)CC2)[C@H]3C(C)C)cc1 [I-A20, (S)-2-(4-(ethylsulfonyl)phenyl)-N-(4-isopropyl-5-((1-(2,2,2-trifluoroethyl)piperidin-4-yl)methyl)-5,6-dihydro-4H-pyrrolo[3,4-d]thiazol-2-yl)acetamide] | – | – | < 100 | < 100 |
| CCS(=O)(=O)c1ccc(CC(=O)Nc2nc3c(s2)CN(Cc2ccc(C(F)(F)F)nc2C)[C@H]3C(C)C)cc1 [I-A21] | – | – | < 100 | < 100 |
| CCS(=O)(=O)c1ccc(CC(=O)Nc2nc3c(s2)CN(C[C@H]2CC[C@H](c4nnc(C)o4)CC2)[C@H]3C(C)C)cc1 [I-A23] | – | – | < 100 | < 100 |

Now from value to molecule:

| Ki ([1]; Table 9) [nM] | IC50 [2, 3] [nM] | Ki ([1]; Table 8) [nM] | IC50 [2, 4] [nM] | Compound |
| --- | --- | --- | --- | --- |
| < 100 | > 1000 | – | – | CCS(=O)(=O)c1ccc(CC(=O)Nc2nc3c(s2)CN(C[C@H]2CC[C@](C)(C#N)CC2)[C@H]3C(C)C)cc1 (single isomer, unassigned) |
| < 100 | > 1000 | – | – | CCS(=O)(=O)c1ccc(CC(=O)Nc2nc3c(s2)CN(C[C@@H]2CC[C@H](C(F)(F)F)NC2)[C@H]3C(C)C)nc1 (single isomer, unassigned) |
| < 100 | < 100 | – | – | CCS(=O)(=O)c1ccc(CC(=O)Nc2nc3c(s2)CN(C[C@H]2CC[C@](OC)(C(F)(F)F)CC2)[C@H]3C(C)C)nc1 (single isomer, unassigned) |
| < 100 | 100 to 1000 | – | – | CCS(=O)(=O)c1ccc(CC(=O)Nc2nc3c(s2)CN(C[C@H]2CC[C@@](OC)(C(F)(F)F)CC2)[C@H]3C(C)C)nc1 (single isomer, unassigned) |
| < 100 | > 1000 | – | – | CCS(=O)(=O)c1ccc(CC(=O)Nc2nc3c(s2)CN(C[C@@H]2CC[C@H](C(F)(F)F)NC2)[C@H]3C(C)C)cc1 (single isomer, unassigned) |
| < 100 | > 1000 | – | – | CCS(=O)(=O)c1ccc(CC(=O)Nc2nc3c(s2)CN([C@H](C)Cc2ccc(Cl)cc2)[C@H]3C(C)C)cc1 (single isomer, unassigned) |
| 100 to 1000 | > 1000 | – | – | CC(C)[C@@H]1c2nc(NC(=O)Cc3ccc(S(C)(=O)=O)cc3)sc2CN1[C@H](C)c1ccc(OC(F)(F)F)cc1 (single isomer, unassigned) |
| < 100 | > 1000 | – | – | CCS(=O)(=O)c1ccc(CC(=O)Nc2nc3c(s2)CN([C@@H](C)c2ccccc2)[C@@H]3C(C)C)cc1 (single isomer, unassigned) |
| – | – | < 100 | < 100 | CCS(=O)(=O)c1ccc(CC(=O)Nc2nc3c(s2)CN(Cc2ccc(C(F)(F)F)cc2)[C@H]3C(C)C)cc1 [I-A2, (S)-2-(4-(ethylsulfonyl)phenyl)-N-(4-isopropyl-5-(4-(trifluoromethyl)benzyl)-5,6-dihydro-4H-pyrrolo[3,4-d]thiazol-2-yl)acetamide] |
| – | – | < 100 | > 1000 | CCS(=O)(=O)c1ccc(CC(=O)Nc2nc3c(s2)CN(Cc2nnc(C(F)(F)F)o2)[C@H]3C(C)C)cc1 [I-A9] |
| – | – | < 100 | < 100 | CCS(=O)(=O)c1ccc(CC(=O)Nc2nc3c(s2)CN(Cc2ccc(Cl)cn2)[C@H]3C(C)C)cc1 [I-A11] |
| – | – | < 100 | < 100 | CCS(=O)(=O)c1ccc(CC(=O)Nc2nc3c(s2)CN(Cc2ccc(C#N)cc2F)[C@H]3C(C)C)cc1 [I-A13] |
| – | – | < 100 | < 100 | CCS(=O)(=O)c1ccc(CC(=O)Nc2nc3c(s2)CN(Cc2ccc(OC(F)(F)F)cc2)[C@H]3C(C)C)cc1 [I-A16] |
| – | – | < 100 | < 100 | CCS(=O)(=O)c1ccc(CC(=O)Nc2nc3c(s2)CN(C[C@H]2CC[C@H](C(F)(F)F)CC2)[C@H]3C(C)C)cc1 [I-A17, 2-(4-(ethylsulfonyl)phenyl)-N—((S)-4-isopropyl-5-((trans-4-(trifluoromethyl)cyclohexyl)methyl)-5,6-dihydro-4H-pyrrolo[3,4-d]thiazol-2-yl)acetamide] |
| – | – | < 100 | < 100 | CCS(=O)(=O)c1ccc(CC(=O)Nc2nc3c(s2)CN(Cc2ccc(-c4ccn(C)c(=O)c4)cc2)[C@H]3C(C)C)cc1 [I-A18, (S)-2-(4-(ethylsulfonyl)phenyl)-N-(4-isopropyl-5-(4-(1-methyl-2-oxo-1,2-dihydropyridin-4-yl)benzyl)-5,6-dihydro-4H-pyrrolo[3,4-d]thiazol-2-yl)acetamide] |
| – | – | < 100 | < 100 | CCS(=O)(=O)c1ccc(CC(=O)Nc2nc3c(s2)CN(C[C@H]2CC[C@H](C(F)(F)F)N(C)C2)[C@H]3C(C)C)cc1 [I-A22] |
